Our source for the IC50 values is patent publication US20210070748A1, “INHIBITORS OF BRUTONS TYROSINE KINASE” (Pharmacyclics LLC, priority 2015, published 2021).

One may read the pIC50 as the IC50 on a negative log10 scale, so that one unit is a factor of ten.

Common to all, as to type: biochemical
In one assay the target is T1, BTK-WT (Homo sapiens, UniProt Q06187).
T1 construct: purified from insect cells as a full-length construct containing an N-terminal 6X-His tag; His6 (N); made in house; host or cells: insect cells (baculovirus Sf21 in Method B)
T1 sequence (Q06187 whole entry): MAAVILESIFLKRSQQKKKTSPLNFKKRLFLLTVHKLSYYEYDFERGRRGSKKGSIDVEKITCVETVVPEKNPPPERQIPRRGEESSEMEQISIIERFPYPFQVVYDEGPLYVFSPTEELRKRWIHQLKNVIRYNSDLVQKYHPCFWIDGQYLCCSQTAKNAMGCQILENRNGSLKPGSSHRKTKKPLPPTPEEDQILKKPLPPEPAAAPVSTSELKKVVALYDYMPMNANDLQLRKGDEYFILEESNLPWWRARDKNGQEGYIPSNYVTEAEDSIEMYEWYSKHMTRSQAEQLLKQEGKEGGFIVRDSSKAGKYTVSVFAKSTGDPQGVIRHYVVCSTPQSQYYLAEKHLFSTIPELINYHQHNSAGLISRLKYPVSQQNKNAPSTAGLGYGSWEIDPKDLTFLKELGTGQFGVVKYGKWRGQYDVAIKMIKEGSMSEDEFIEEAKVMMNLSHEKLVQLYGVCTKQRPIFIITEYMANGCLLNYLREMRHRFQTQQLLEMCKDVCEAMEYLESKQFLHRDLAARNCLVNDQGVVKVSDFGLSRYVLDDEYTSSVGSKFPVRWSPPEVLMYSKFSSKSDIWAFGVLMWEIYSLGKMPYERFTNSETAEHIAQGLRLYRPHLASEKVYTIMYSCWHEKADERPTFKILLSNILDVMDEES
Description: Btk in vitro inhibitory activity (one of Method A TR-FRET, Method B electrophoretic mobility shift, Method C radiometric filter binding). The following applies: D-compounds panel data; read-out: IC50 BTK-WT. A general note: Mobility shift assays separate free from complexed probe on a gel.

The target of the next assay is T2, JAK3 (Homo sapiens, UniProt P52333).
T2 sequence (P52333 1-1124): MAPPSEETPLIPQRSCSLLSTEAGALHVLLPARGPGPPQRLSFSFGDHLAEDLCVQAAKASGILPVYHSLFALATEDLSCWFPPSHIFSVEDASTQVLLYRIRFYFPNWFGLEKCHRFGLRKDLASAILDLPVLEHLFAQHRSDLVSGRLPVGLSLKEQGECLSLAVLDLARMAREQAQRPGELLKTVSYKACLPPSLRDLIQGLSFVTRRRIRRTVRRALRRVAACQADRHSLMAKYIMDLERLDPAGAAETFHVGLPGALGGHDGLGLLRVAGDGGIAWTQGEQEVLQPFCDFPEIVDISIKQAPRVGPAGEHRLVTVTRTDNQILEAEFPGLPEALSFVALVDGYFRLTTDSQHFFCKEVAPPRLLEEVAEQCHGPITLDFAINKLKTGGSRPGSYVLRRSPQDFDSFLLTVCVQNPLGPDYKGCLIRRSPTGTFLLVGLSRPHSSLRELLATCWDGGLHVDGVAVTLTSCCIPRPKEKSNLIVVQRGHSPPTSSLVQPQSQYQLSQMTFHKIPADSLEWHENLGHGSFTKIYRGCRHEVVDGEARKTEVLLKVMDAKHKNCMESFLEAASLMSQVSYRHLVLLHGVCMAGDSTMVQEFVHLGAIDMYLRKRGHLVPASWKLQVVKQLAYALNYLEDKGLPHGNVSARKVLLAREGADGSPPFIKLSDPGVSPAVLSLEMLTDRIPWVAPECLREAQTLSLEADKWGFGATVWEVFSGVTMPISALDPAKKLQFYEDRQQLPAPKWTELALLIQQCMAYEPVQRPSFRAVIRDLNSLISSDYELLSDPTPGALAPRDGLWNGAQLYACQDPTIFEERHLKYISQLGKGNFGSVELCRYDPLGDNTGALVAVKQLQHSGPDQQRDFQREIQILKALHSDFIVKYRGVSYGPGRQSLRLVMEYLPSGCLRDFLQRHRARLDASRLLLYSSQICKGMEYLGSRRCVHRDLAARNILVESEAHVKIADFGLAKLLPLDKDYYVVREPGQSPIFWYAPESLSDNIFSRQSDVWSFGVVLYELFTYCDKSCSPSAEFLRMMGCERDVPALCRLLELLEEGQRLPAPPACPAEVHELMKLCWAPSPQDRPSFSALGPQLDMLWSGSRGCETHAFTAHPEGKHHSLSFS
Description: Inhibition of a panel of kinases, in vitro HotSpot kinase assay: JAK3. Conditions: D-compounds panel data; 1 μM ATP; read-out: IC50 JAK3.

In another assay the target is LCK (Homo sapiens, UniProt P06239). Description: Inhibition of a panel of kinases, in vitro HotSpot kinase assay: LCK. The following applies: D-compounds panel data; 1 μM ATP; read-out: IC50 LCK.
Sequence of LCK (P06239 whole entry): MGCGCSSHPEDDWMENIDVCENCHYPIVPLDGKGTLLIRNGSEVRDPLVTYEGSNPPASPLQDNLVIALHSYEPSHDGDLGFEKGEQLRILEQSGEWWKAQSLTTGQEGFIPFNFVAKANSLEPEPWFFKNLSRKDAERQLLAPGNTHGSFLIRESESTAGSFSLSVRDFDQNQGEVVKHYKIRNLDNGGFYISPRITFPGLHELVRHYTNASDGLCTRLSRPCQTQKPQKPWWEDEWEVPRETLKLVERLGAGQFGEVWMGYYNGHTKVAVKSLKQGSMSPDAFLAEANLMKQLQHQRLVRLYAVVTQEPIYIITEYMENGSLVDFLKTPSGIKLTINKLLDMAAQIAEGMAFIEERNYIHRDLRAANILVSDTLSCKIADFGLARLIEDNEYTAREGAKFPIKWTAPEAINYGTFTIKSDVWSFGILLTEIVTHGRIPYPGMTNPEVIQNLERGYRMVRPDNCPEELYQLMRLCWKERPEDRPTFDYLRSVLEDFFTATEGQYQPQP
In another assay the target is EGFR (Homo sapiens, UniProt P00533). Description: Inhibition of a panel of kinases, in vitro HotSpot kinase assay: EGFR. The following applies: D-compounds panel data; 1 μM ATP. The method, then: The degree of inhibition of a panel of kinases is determined using the in vitro HotSpot kinase assay (purified enzymes, ^33P-ATP, an appropriate substrate and 1 μM ATP).
Sequence of EGFR (P00533 25-1210): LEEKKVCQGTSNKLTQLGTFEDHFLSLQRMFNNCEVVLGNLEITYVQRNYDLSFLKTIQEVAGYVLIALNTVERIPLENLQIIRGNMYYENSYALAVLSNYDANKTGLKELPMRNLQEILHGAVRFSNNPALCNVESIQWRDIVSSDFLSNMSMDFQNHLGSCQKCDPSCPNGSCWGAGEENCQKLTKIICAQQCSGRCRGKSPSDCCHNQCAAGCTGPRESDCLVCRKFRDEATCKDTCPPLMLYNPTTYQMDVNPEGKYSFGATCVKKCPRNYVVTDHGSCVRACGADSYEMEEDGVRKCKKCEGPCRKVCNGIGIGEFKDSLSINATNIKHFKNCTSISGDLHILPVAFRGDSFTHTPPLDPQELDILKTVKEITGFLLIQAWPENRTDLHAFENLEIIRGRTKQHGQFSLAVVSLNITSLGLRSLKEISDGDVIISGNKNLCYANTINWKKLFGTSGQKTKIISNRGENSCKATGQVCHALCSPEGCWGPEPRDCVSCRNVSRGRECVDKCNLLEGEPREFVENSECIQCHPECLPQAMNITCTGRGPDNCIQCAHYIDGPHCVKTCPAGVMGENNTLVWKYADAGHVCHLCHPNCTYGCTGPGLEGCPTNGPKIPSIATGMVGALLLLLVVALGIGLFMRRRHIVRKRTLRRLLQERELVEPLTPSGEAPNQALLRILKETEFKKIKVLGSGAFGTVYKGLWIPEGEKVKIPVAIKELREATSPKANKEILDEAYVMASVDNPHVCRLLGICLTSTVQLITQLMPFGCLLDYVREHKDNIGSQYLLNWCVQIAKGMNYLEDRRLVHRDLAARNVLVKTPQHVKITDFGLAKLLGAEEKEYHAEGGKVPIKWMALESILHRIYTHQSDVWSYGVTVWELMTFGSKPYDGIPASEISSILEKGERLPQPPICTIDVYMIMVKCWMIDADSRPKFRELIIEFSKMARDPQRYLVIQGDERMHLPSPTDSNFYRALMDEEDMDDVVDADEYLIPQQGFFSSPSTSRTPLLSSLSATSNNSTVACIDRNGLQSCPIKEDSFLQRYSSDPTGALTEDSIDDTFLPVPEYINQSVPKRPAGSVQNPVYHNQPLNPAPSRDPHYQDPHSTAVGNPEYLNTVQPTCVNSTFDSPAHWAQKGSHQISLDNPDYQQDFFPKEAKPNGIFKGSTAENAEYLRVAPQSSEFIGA

pIC50: −log10 of the molar value.

Consider `C[C@@H]1[C@H](NC(=O)c2ccc(C(F)(F)F)cn2)CCCN1c1cnc(C(N)=O)c(Nc2cnn(C)c2)n1` [Example D-87, 3-[(1-methyl-1H-pyrazol-4-yl)amino]-5-[(2R,3R)-2-methyl-3-[5-(trifluoromethyl)pyridine-2-amido]piperidin-1-yl]pyrazine-2-carboxamide], for which the negative logarithm of the IC50 (pIC50) was at least 8.00 at BTK-WT, 6.00 to 7.00 on JAK3, 6.00 to 7.00 on LCK and 6.00 to 7.00 on EGFR.
As to `C[C@@H]1[C@H](NC(=O)c2ccc(C3CC3)cc2)CCCN1c1cnc(C(N)=O)c(Nc2ccc(N3CCN(C)CC3)cc2)n1` [Example D-81], the pIC50 on BTK-WT was at least 8.00; at JAK3, 5.00 to 6.00; at LCK, 7.00 to 8.00; against EGFR, 6.00 to 7.00.
As for `Cn1cc(Nc2nc(N3CCC[C@H]4[C@@H]3CCN4C(=O)c3ccc(C4CC4)cc3)cnc2C(N)=O)cn1` [Example D-45, 5-[(3aS,7aS)-1-(4-cyclopropylbenzoyl)-octahydro-1H-pyrrolo[3,2-b]pyridin-4-yl]-3-[(1-methyl-1H-pyrazol-4-yl)amino]pyrazine-2-carboxamide], the pIC50 on BTK-WT is 7.00 to 8.00; at JAK3, 5.00 to 6.00; at LCK it was 6.00 to 7.00; on EGFR, below 5.00.
On the same counts, the results for `C[C@@H]1[C@H](NC(=O)N(C)C)CCCN1c1cnc(C(N)=O)c(Nc2ccc(OC3CCN(C)CC3)cc2)n1` [Example D-33, 5-[(2R,3R)-3-[(dimethylcarbamoyl)amino]-2-methylpiperidin-1-yl]-3-({4-[(1-methylpiperidin-4-yl)oxy]phenyl}amino)pyrazine-2-carboxamide] are at least 8.00, 5.00 to 6.00, 7.00 to 8.00 and 6.00 to 7.00.
On to `CN(C)C(=O)N[C@H]1CCCN(c2cnc(C(N)=O)c(Nc3ccc4ncccc4c3)n2)[C@H]1CO` (racemic) [Example D-65, cis 5-[3-[(dimethylcarbamoyl)amino]-2-(hydroxymethyl)piperidin-1-yl]-3-[(quinolin-6-yl)amino]pyrazine-2-carboxamide], for which the negative-log IC50 (pIC50) at BTK-WT was 6.00 to 7.00; on JAK3, below 5.00; at LCK it was below 5.00; against EGFR, below 5.00.
With `Cc1cc(Nc2nc(N3CCC[C@H](NC(=O)N(C)C)[C@@H]3CO)cnc2C(N)=O)sn1` [Example D-68, 5-[(2R,3S)-3-[(dimethylcarbamoyl)amino]-2-(hydroxymethyl)piperidin-1-yl]-3-[(3-methyl-1,2-thiazol-5-yl)amino]pyrazine-2-carboxamide], the pIC50 was 5.00 to 6.00 on BTK-WT, 5.00 to 6.00 at JAK3, below 5.00 at LCK and below 5.00 against EGFR.
For `C[C@@H]1[C@H](NC(=O)N(C)C)CCCN1c1cnc(C(N)=O)c(Nc2ccc(N3CCN(C)CC3)cc2F)n1` [Example D-52, 5-[(2R,3R)-3-[(dimethylcarbamoyl)amino]-2-methylpiperidin-1-yl]-3-{[2-fluoro-4-(4-methylpiperazin-1-yl)phenyl]amino}pyrazine-2-carboxamide], the negative logarithm of the IC50 (pIC50) at BTK-WT was 7.00 to 8.00; on JAK3, below 5.00; on LCK, 5.00 to 6.00; against EGFR it was 5.00 to 6.00.
In the case of `C[C@@H]1[C@H](NC(=O)c2ccc(C3CC3)nc2)CCCN1c1cnc(C(N)=O)c(Nc2ccc(OC3CCC(F)(F)CC3)cc2)n1` [Example D-48, 5-[(2R,3R)-3-(6-cyclopropylpyridine-3-amido)-2-methylpiperidin-1-yl]-3-({4-[(4,4-difluorocyclohexyl)oxy]phenyl}amino)pyrazine-2-carboxamide], the negative logarithm of the IC50 (pIC50) was 7.00 to 8.00 on BTK-WT, 5.00 to 6.00 on JAK3, below 5.00 at LCK and below 5.00 against EGFR.
